Assay results taken from patent US20100278983A1, “COMPOSITION OF MONASCUS FERMENTED PRODUCT WITH A FUNCTION THAT REDUCES BODY FATNESS FORMATION AND THE METHOD FOR MANUFACTURING THE SAME” (SUNWAY BIOTECH CO., LTD., priority 2009, published 2010).

Key:
[1] = Body weight of rats fed with high-fat diet and Monascus fermented product; format: in vivo, male Wister rats; settings: after 6 weeks of feeding, dosage not stated
Source text: In order to estimate the effects of Monascus fermented product on the decrease in body fat mass development and body weight-lowering, the present invention carried out in vitro cellular experiments and in vivo experiments. 3T3-L1 preadipocyte is used as the experimental material in the in vitro cellular experiments to probe into the effects of Monascus fermented product on proliferation and differentiation in preadipocyte. Male Wister rates are used as the experimental animals in the in vivo experiments and fed with high-fat diet and Monascus fermented products at the same time, then determine the effects of the decrease in body fat mass development by many evaluation indicators after […] of breeding.
Rats are randomly divided into to 9 groups, each include 8 rats, on the principles that the initial average weights of rats are unanimous. Rats are fed with high-fat diet and Monascus fermented product at the same time in experiments and then sacrificed for every analyses after 6 weeks of feeding. […]

3T3-L1 preadipocyte [2] = assay: Proliferation rate of 3T3-L1 preadipocyte; format: cell-based; settings: for decrease of proliferation rate of 3T3-L1 preadipocyte: 24 hours
Source text: (§1) 3T3-L1 preadipocyte is used as the experimental material in the in vitro cellular experiments to probe into the effects of Monascus fermented product on proliferation and differentiation in preadipocyte.

3T3-L1 preadipocyte [3] = assay: Differentiation rate of 3T3-L1 preadipocyte (content of triglyceride, TG); format: cell-based; settings: Mus musculus; for inhibition at 125 µg/mL: 0.125 mg/mL
Protocol: as §1
In this research, 50, 100 and 200 μg/mL of water extracts of red mold rice and red mold dioscorea are added to 3T3-L1 preadipocyte respectively during differentiation induction and then the cells are collected to be analyzed the content of triglyceride after 8 days of differentiation. TG synthesis is an indicator for the differentiation late phase of the fat cells, thus the TG content in cells are usually used to determine the differentiation rate.

Row | Structure (SMILES) | Final body weight [1] [g] | Increment of body weight [1] [g] | decrease of proliferation rate of 3T3-L1 preadipocyte (3T3-L1 preadipocyte [2]; 1.25 μg/mL) [%] | decrease of proliferation rate of 3T3-L1 preadipocyte (3T3-L1 preadipocyte [2]; 2.5 μg/mL) [%] | decrease of proliferation rate of 3T3-L1 preadipocyte (3T3-L1 preadipocyte [2]; 5 μg/mL) [%] | decrease of proliferation rate of 3T3-L1 preadipocyte (3T3-L1 preadipocyte [2]; 10 μg/mL) [%] | inhibition at 125 µg/mL (3T3-L1 preadipocyte [3]) [%] | inhibition at 250 µg/mL (3T3-L1 preadipocyte [3]; 0.25 mg/mL) [%] | inhibition at 1000 µg/mL (3T3-L1 preadipocyte [2]; Mus musculus, 3T3-L1, 1 mg/mL, 72 hours) [%]
1 | CC[C@H](C)C(=O)O[C@H]1C[C@@H](C)C=C2C=C[C@H](C)[C@H](CC[C@@H]3C[C@@H](O)CC(=O)O3)[C@H]21 [Monacolin K] | 472.4 | 141.1 | 13.0 | 18.2 | 23.9 | 28.6 | – | – | –
2 | C/C=C/C1=CC2=C(CO1)C(=O)[C@]1(C)OC(=O)[C@H](C(=O)CCCCCCC)[C@H]1C2 [ankaflavin] | – | – | – | – | – | – | 41.2 | 29.9 | –
3 | C/C=C/C1=CC2=C(CO1)C(=O)[C@]1(C)OC(=O)[C@H](C(=O)CCCCC)[C@H]1C2 [monascin] | – | – | – | – | – | – | 31.2 | – | 8
